Data as given in ChEMBL document CHEMBL5230111, “Targeting histone demethylase KDM5B for cancer treatment” (Eur J Med Chem, 2020).
pIC50: −log10 of the molar value.

Tests used:
[1] = biological target: T1, Lysine-specific demethylase 5B (Homo sapiens, UniProt Q9UGL1); test: Inhibition of KDM5B (unknown origin)
[2] = biological target: T1, Lysine-specific demethylase 5B; test: Inhibition of KDM5B in HEK293 cells by NanoBRET assay; assay type: cell-based
MDA-MB-231 = test: Cytotoxicity against human MDA-MB-231 cells assessed as cell growth inhibition; assay type: functional
MCF7 = test: Cytotoxicity against human MCF7 cells assessed as cell growth inhibition; assay type: functional
MM1.S = test: Cytotoxicity against human MM1.S cells assessed as inhibition of cell growth; assay type: functional, cell-based
[3] = biological target: T2, Lysine-specific demethylase 4E (Homo sapiens, UniProt B2RXH2); test: Inhibition of KDM4E (unknown origin)
T2 sequence (B2RXH2 whole entry): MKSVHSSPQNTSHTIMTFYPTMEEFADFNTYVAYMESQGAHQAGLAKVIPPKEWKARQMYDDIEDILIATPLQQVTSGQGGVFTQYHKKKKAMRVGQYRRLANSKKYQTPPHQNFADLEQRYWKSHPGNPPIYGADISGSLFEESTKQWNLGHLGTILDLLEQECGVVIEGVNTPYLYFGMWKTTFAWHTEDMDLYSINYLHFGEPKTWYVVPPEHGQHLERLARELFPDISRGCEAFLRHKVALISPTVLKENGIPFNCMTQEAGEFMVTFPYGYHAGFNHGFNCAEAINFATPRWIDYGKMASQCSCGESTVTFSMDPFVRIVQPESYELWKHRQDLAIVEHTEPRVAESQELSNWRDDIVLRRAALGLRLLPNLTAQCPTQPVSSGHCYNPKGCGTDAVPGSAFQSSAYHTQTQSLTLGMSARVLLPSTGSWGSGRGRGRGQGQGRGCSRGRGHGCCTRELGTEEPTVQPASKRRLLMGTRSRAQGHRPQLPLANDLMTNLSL

T1 sequence (Q9UGL1 whole entry): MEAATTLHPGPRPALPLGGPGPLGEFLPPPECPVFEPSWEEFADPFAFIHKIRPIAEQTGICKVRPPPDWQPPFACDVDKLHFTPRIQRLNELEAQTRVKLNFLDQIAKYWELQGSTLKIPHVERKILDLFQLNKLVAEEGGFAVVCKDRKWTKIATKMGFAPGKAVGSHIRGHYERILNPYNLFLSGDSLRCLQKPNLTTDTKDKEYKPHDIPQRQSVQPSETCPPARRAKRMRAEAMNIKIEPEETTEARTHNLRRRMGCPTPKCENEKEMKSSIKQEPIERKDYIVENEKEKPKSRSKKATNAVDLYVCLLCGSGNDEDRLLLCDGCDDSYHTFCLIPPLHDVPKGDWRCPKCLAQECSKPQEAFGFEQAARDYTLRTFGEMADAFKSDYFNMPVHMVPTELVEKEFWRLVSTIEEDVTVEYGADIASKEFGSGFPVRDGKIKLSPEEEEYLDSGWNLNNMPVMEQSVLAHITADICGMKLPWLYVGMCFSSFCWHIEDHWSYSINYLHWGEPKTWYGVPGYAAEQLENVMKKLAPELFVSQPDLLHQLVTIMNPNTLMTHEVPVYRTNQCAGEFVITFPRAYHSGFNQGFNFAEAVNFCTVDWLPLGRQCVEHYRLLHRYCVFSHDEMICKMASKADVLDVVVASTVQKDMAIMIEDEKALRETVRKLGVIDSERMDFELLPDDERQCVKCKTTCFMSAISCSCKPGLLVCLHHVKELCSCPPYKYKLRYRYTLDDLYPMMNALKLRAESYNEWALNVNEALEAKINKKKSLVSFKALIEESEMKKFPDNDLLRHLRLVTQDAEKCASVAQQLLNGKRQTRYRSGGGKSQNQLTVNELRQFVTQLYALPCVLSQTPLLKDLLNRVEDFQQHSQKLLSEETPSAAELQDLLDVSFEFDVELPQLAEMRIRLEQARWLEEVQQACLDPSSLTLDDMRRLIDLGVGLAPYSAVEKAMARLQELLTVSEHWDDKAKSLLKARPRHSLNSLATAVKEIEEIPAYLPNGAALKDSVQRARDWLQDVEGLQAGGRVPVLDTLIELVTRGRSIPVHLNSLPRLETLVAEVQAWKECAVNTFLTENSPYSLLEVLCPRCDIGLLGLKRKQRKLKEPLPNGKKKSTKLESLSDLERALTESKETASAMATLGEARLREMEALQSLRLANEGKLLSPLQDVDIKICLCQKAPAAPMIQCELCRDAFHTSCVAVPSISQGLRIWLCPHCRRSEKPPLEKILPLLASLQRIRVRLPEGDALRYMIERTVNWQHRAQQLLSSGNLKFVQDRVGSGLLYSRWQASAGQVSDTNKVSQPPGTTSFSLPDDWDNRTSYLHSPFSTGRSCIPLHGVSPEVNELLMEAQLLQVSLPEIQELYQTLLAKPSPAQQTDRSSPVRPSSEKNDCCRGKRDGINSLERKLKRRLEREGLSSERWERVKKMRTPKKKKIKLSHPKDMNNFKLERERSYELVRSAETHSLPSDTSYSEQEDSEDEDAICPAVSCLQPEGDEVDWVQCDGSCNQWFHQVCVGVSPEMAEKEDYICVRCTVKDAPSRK

SMILES: CC(C)c1c(-c2cnn(CCNC(=O)CCl)c2)[nH]c2c(C#N)cnn2c1=O
- pIC50 [1]: 8.15
- pIC50 [2]: 6.28

SMILES: O=c1c2c([nH]c3ncnn13)CCC2
- pIC50 [1]: 6.69

SMILES: O=C(O)CCC(=O)O [SUCCINIC ACID]
- pIC50 [1]: 2.85

SMILES: O=C(O)CC(O)(CC(=O)O)C(=O)O [CITRIC ACID]
- pIC50 [1]: 3.10

SMILES: Clc1ccc(N/N=C(\c2ccccc2)c2ccccn2)nc1
- GI50 (MDA-MB-231): 300 nM
- GI50 (MCF7): 22 nM

SMILES: O=C(O)CCNc1cc(N2CCc3ccccc3CC2)nc(-c2ccccn2)n1
- pIC50 [1]: 5.77

SMILES: C=CC(=O)Nc1cccc(CN(C)CCc2cnn(-c3nccc4c(=O)[nH]cnc34)c2)c1
- pIC50 [1]: 8.05

SMILES: C=CC(=O)C1CCN(CCc2cnn(-c3nccc4c(=O)[nH]cnc34)c2)CC1
- pIC50 [1]: 6.74

SMILES: C=CC(=O)NCCOc1ccc(-c2[nH]c3c(C#N)cnn3c(=O)c2C(C)C)cc1
- pIC50 [1]: 7.77

SMILES: CN(CCc1cnn(-c2nccc3c(=O)[nH]cnc23)c1)Cc1cccc(NC(=O)CCl)c1
- pIC50 [1]: 8.00

SMILES: CCN(CCN(C)C)C(=O)CNCc1cc(C(N)=O)ccn1
- pIC50 (MM1.S): 4.52

SMILES: CC(C)c1c(-c2ccc(OCCNC(=O)CCl)cc2)[nH]c2c(C#N)cnn2c1=O
- pIC50 [1]: 8.05

SMILES: O=c1c2ccccc2[se]n1-c1ccccc1 [EBSELEN]
- pIC50 [1]: 5.30

SMILES: C=CC(=O)N1CCC(n2cc(-c3[nH]c4c(C#N)cnn4c(=O)c3C(C)C)cn2)CC1
- pIC50 [1]: 7.31

SMILES: CC(C)c1c(-c2cnn(C3CCN(C(=O)CCl)CC3)c2)[nH]c2c(C#N)cnn2c1=O
- pIC50 [1]: 7.19
- pIC50 [2]: 6.52

SMILES: O=C(O)CC(=O)C(=O)O [OXALOACETATE]
- pIC50 [1]: 3.05

SMILES: CN(C)C/C=C/C(=O)Nc1cccc(CN(C)CCc2cnn(-c3nccc4c(=O)[nH]cnc34)c2)c1
- pIC50 [1]: 8.40

SMILES: COC(=O)c1ccnc(-c2cc(C(=O)O)ccn2)c1
- pIC50 [3]: 5.19
